≈ marks a conversion by molar mass, not a printed value. Read-outs that look alike come from different tables or passages of the source.
Assays:
[1] = tested on: Salmonella typhimurium TA98, TA100, TA1535, TA1537
in vitro [2] = assay type: in vitro ADME, mouse; conditions: mouse, microsomes
Experimental: (§1) […]. The incubation timepoints measured were 0, 5, 10, 15, 30, and 45 minutes. All samples were prepared in duplicate and analyzed by LC-MS/MS.

[3] = not given; remark: listed apart in the source
HT-1080 cells = assay: Cellular dose response assay, HT-1080 with and without Fer-1; assay type: cell-based, human; conditions: for ferroptosis induction / potency in HT-1080 cells, result in words: RSL3 as control
Method in brief: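 1500 cells/well, o/n; 12-pt 2-fold dilns, ±Fer-1 (HT-1080), 0.4% DMSO, n=3 technical; 48 h, 37 °C/5% CO2; CellTiter-Glo lum. Huh7, HLF, HT-1080 grown in DMEM/10% HI-FBS; SK-HEP-1 in EMEM/10% HI-FBS.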

in vitro [4] = assay type: in vitro ADME, human; conditions: human, microsomes
Experimental: as §1

GPX4 = molecular target: T1, GPX4 (Homo sapiens, UniProt P36969); assay: GPX4 activity assay in cell lysates (NADPH-coupled); assay type: biochemical; parameters: endogenous in cells; host or cells: A-673 cell lysate
T1 sequence (P36969 1-170 isoform P36969-2): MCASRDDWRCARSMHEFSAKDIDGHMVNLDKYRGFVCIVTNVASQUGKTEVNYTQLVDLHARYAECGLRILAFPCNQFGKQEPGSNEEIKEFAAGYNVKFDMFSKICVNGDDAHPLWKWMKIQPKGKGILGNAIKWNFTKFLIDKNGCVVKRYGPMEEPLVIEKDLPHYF
Method in brief: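 Native GPX4 in lysates of A-673 cells grown with 20 nM sodium selenite; lysate preincubated with compound 45 min at 37 °C in pH 8.0 buffer with 3 mM GSH, 0.5 mM NADPH and glutathione reductase. Reaction started with phosphatidylcholine hydroperoxide; NADPH consumption followed at 340 nm over 25 min; triplicates.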

[5] = Kinetic aqueous solubility
[6] = tested on: DTP cells derived from PC9; assay: Drug-tolerant persister cell model, DTP cells; conditions: for % Viability Persister: 48 hours
[7] = HT1080 + Fer-1, read-out: IC50 (uM) HT1080 + Fer-1
[8] = HT1080, without Fer-1, read-out: IC50 (uM) HT1080
[9] = ferroptosis selectivity, HT1080 + Fer-1 vs HT1080

| Microsome Stability t1/2 (min) mouse (in vitro [2]) | Plasma Stability t1/2 (min) mouse | Plasma Stability t1/2 (min) human [3] | IC50 (HT-1080 cells; [7]) | IC50 (HT-1080 cells; [8]) | Microsome Stability t1/2 (min) human (in vitro [4]) | GPX4% inhibition at 2.5 μM (GPX4) | Structure (SMILES) | Selectivity (HT-1080 cells; [9]) | further results |
| --- | --- | --- | --- | --- | --- | --- | --- | --- | --- |
| – | – | – | – | – | – | – | CN(N=O)C(=O)N[C@H]1C(O)O[C@H](CO)[C@@H](O)[C@@H]1O (mixture of isomers) [Streptozotocin] | – | Positive Significance (− to +++) TA98 − S9 ([1]; 2.5 μM): + (Weak positive, if p < 0.05); Positive Significance (− to +++) TA100 + S9 ([1]; 2.5 μM): +++ (Very strong positive, if p < 0.001); Positive Significance (− to +++) TA100 − S9 ([1]; TA100, − S9, 2.5 μM): +++ (Very strong positive, if p < 0.001); Positive Significance (− to +++) TA1535 + S9 ([1]; 2.5 μM): +++ (Very strong positive, if p < 0.001); Positive Significance (− to +++) TA1535 − S9 ([1]; TA1535, − S9, 2.5 μM): +++ (Very strong positive, if p < 0.001) |
| 7.4 min | 6.6 min | 275 min | 1.7 µM | 1 µM | 8.6 min | 86.4 ± 7.3% | CC(OC(=O)CCl)C(C)(C)NC(=O)c1nn(C)c2cc(-c3ccc(N4CCOCC4)c(Cl)c3)ccc12 (racemic) [QW-737] | 1.7 | – |
| 13.0 min | 25.4 min | 245 min | 1.8 µM | 1.6 µM | 19.5 min | 55.4 ± 8.1% | COc1c(Cl)cc(-c2ccc3c(C(=O)NC(C)(C)C(C)OC(=O)CCl)nn(C)c3c2)cc1Cl (racemic) [QW-745] | 1.1 | – |
| – | – | – | – | – | – | – | Nc1ccc2cc3ccccc3cc2c1 [Compound 2-Aminoanthracene, 2-Aminoanthracene] | – | Positive Significance (− to +++) TA98 + S9 ([1]; 1 μM): +++ (Very strong positive, if p < 0.001); Positive Significance (− to +++) TA100 + S9 ([1]; 1 μM): +++ (Very strong positive, if p < 0.001); Positive Significance (− to +++) TA1535 + S9 ([1]; 1 μM): ++ (Strong positive, if p < 0.01); Positive Significance (− to +++) TA1537 + S9 ([1]; 1 μM): +++ (Very strong positive, if p < 0.001) |
| – | – | – | – | – | – | – | O=[N+]([O-])c1ccc2c(c1)Cc1ccccc1-2 [Compound 2-Nitrofluorene, 2-Nitrofluorene] | – | Positive Significance (− to +++) TA98 + S9 ([1]; 30 μM): +++ (Very strong positive, if p < 0.001); Positive Significance (− to +++) TA98 − S9 ([1]; 30 μM): +++ (Very strong positive, if p < 0.001) |
| – | – | – | – | – | – | – | Nc1c2ccccc2nc2ccccc12 [Compound 9-Aminoacridine, 9-Aminoacridine] | – | Positive Significance (− to +++) TA1537 + S9 ([1]; 10 μM): ++ (Strong positive, if p < 0.01); Positive Significance (− to +++) TA1537 − S9 ([1]; TA1537, − S9, 10 μM): +++ (Very strong positive, if p < 0.001) |
| 1.8 min | 6.3 min | 10.2 min | – | – | 1.7 min | – | Cn1nc(C(=O)NC(C)(C)COC(=O)CCl)c2ccc(-c3csc4ccccc34)cc21 [QW-505] | – | Solubility ([5]; 1% DMSO, Phosphate Buffered Saline pH 7.4, 1 hour, ambient, UV/Vis absorbance): <1.3 µM; Solubility ([5]; aqueous solubility, Table 9): <1.3 µM; GPX4% inhibition at 5 μM (GPX4): 76.1 ± 4.0% |
| 25 min | 12.5 min | 73.2 min | – | – | 49 min | – | CC(C)Oc1ccc(-c2ccc3c(C(=O)NC(C)(C)COC(=O)CCl)nn(C)c3c2)cc1Cl [QW-550] | – | Solubility ([5]; aqueous solubility, Table 9): 7.8 µM (≈ 3.84 µg/mL); GPX4% inhibition at 5 μM (GPX4): 91.5 ± 2.2% |
| 24 min | 23.9 min | 116 min | – | – | 12 min | – | Cn1nc(C(=O)NC(C)(C)COC(=O)CCl)c2ccc(-c3ccc(Oc4ccccc4)c(Cl)c3)cc21 [QW-561] | – | Solubility ([5]; aqueous solubility, Table 9): 15.6 µM (≈ 8.21 µg/mL); GPX4% inhibition at 5 μM (GPX4): 87.6 ± 2.8% |
| 15 min | 16.9 min | 56.7 min | – | – | 22 min | – | Cn1nc(C(=O)NC(C)(C)COC(=O)CCl)c2ccc(-c3ccc(Cl)c(Cl)c3)cc21 [QW-570] | – | Solubility ([5]; aqueous solubility, Table 9): 15.6 µM (≈ 7.31 µg/mL); GPX4% inhibition at 5 μM (GPX4): 80.7 ± 14.8% |
| 19 min | 311 min | 243 min | – | – | 15 min | 33.6 ± 6.5% | COc1ccc(-c2ccc3c(C(=O)NC(C)(C)CNC(=O)CCl)nn(C)c3c2)cc1Cl [QW-628] | – | – |
| – | 6.2 min | 12.5 min | 14.6 µM | 3.5 µM | – | 26.3 ± 63.2% | COc1ccc(CNS(=O)(=O)c2ccc(-c3ccc4c(C(=O)NC(C)(C)COC(=O)CCl)nn(C)c4c3)cc2)cc1 [QW-658] | 4.2 | GPX4% inhibition at 5 μM (GPX4): 20.9 ± 14.0% |
| 19 min | 4.7 min | 47.9 min | 18.2 µM | 2.4 µM | 17 min | 68.0 ± 45.2% | Cn1nc(C(=O)NC(C)(C)COC(=O)CCl)c2ccc(-c3ccc(OC(F)(F)F)c(Cl)c3)cc21 [QW-672] | 7.6 | – |
| 26 min | 3.2 min | 67.4 min | 12.1 µM | 3 µM | 28 min | 57.3 ± 2.8% | Cn1nc(-n2cc(C(C)(C)COC(=O)CCl)nn2)c2ccc(-c3ccc(N4CCOCC4)c(Cl)c3)cc21 [QW-680] | 4.0 | – |
| – | 23.8 min | 16.6 min | – | – | – | 35.8 ± 14.3% | COc1ccc(-c2ccc3c(C(=O)NC(COC(=O)CCl)C(F)(F)F)nn(C)c3c2)cc1Cl (stereo not drawn) [QW-686] | – | – |
| 10.7 min | 385 min | 318 min | 5.7 µM | 0.59 µM | 6.6 min | 98.4 ± 17.6% | COc1ccc(-c2ccc3c(C(=O)NC(C)(C)C(C)(C)OC(=O)CCl)nn(C)c3c2)cc1Cl [QW-730] | 9.7 | ferroptosis induction / potency in HT-1080 cells, result in words (HT-1080 cells): sub-micromolar GI50 value |
| 13.5 min | >1000 min | 290 min | 5.4 µM | 1.6 µM | 10.2 min | 20.4 ± 3.6% | COc1c(Cl)cc(-c2ccc3c(C(=O)NC(C)(C)C(C)(C)OC(=O)CCl)nn(C)c3c2)cc1Cl [QW-750] | 3.4 | ferroptosis induction / potency in HT-1080 cells, result in words (HT-1080 cells): moderate potency |
| – | – | – | – | – | – | – | CC(C)(NC(=O)c1nn(Cc2ccc(Cl)cc2)c2cc(-c3ccc(N4CCOCC4)c(Cl)c3)ccc12)C(C)(C)OC(=O)CCl [QW-811] | – | selectivity for DTPs vs PC9 parental cells, result in words [6]: selective and similar or stronger cytotoxicity to DTP cells; % Viability Persister ([6]; dose 1.0 μM): 93.00%; % Viability Persister ([6]; dose 10.0 μM): 4.75%; Selectivity (HT-1080 cells; ferroptosis selectivity, IC50 with Fer-1 / IC50): 45.4; IC50 (HT-1080 cells; with Fer-1, Table 10, read-out: IC50 (μM) HT1080 + Fer-1): 12.7 µM; IC50 (HT-1080 cells; without Fer-1, Table 10, read-out: IC50 (μM) HT1080): 0.28 µM; GPX4% inhibition at 2.5 μM (GPX4; 4th generation): 47.4 ± 8.9% |

| Structure (SMILES) | Microsome Stability t1/2 (min) mouse (in vitro [2]) | Plasma Stability t1/2 (min) mouse | Plasma Stability t1/2 (min) human [3] | IC50 (HT-1080 cells; [7]) | IC50 (HT-1080 cells; [8]) | Microsome Stability t1/2 (min) human (in vitro [4]) | GPX4% inhibition at 2.5 μM (GPX4) | Selectivity (HT-1080 cells; [9]) | further results |
| --- | --- | --- | --- | --- | --- | --- | --- | --- | --- |
| Cn1nc(C(=O)NC(C)(C)COC(=O)CCl)c2ccc(-c3ccc4c(c3)OCO4)cc21 [QW-594] | 137 min | 17.0 min | 6.6 min | 8.8 µM | 2.7 µM | 250 min | 71.5 ± 3.0% | – | Solubility ([5]; aqueous solubility, Table 9): 1.0 µM (≈ 0.444 µg/mL); unbound clearance rate (in vitro [2]): 5.1 µL/h/mg; half-life in mouse plasma: 17 min; Selectivity (HT-1080 cells): 3.3; GPX4 inhibitory activity, result in words (GPX4): comparable to that of QW-446; GPX4 inhibition rate (GPX4; concentration not given): 75% |

From US20250248979A1, “NOVEL GPX4 INHIBITORS AND USES THEREOF” (THE TRUSTEES OF COLUMBIA UNIVERSITY IN THE CITY OF NEW YORK, priority 2022, published 2025)
